For data set [1], the system named is PPARγ-RXRα heterodimer. The experiment in a line: PPARγ-RXRα heterodimer formation assay. Format: biochemical.
Data set [2] relates to HepG2 cells. The experiment in a line: Differential gene expression. Format: cell-based. The conditions noted are these: 20 μM.
The test system of data set [3] is COS7 cells. The experiment in a line: Toxicity assay. Format: cell-based. The following applies: up to 100 μM, 24 h.
For data set [4], the system named is FOXO3a. The experiment in a line: FOXO3a Ser253 phosphorylation. The conditions noted are these: 20 μM, 16 h. Format: cell-based.
In data set [5] the test system is human adipocyte-derived stem cells (ASC; ASC52telo, hTERT). As to the kind of experiment: Adipocyte-derived stem cell differentiation. It is filed as cell-based.
Data set [6] relates to human PPAR response element (PPRE). The experiment in a line: PPRE reporter assay in HepG2 cells. It is filed as cell-based.
Data set [7] deals with T1, PPARγ LBD (Homo sapiens, UniProt P37231).
T1 sequence (P37231 238-503 limits assumed): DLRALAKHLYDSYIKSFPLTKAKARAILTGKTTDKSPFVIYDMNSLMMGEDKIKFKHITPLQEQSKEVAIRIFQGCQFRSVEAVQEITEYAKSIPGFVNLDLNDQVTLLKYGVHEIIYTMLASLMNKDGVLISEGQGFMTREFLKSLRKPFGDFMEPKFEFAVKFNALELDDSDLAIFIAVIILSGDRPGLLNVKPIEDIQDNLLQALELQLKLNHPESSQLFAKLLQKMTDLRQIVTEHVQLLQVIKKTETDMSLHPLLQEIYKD
As to the kind of experiment: MS-based PPARγ ligand binding assay. The following applies: 0.2–4 μM, absence and presence of 1 μM pioglitazone.

Data set [8] deals with T1, PPARγ LBD. It is filed as biochemical.
Data set [9] addresses T1, PPARγ LBD. Format: binding.
For data set [10], the system named is FOXO. The experiment in a line: FoxO response element. Format: cell-based. The conditions noted are these: HepG2 cells, over time.
Data set [11] has as its system nuclear receptors. The experiment in a line: Selectivity profiling in Gal4-hybrid reporter gene assays. It is filed as cell-based, human. The following applies: 100 μM. Background: In a reporter assay the amount or activity of a reporter protein is the signal.
For data set [12], the system named is genes comprising a PPAR response element. The conditions noted are these: cited from earlier work.

This is an account of results in paper PMC10347545 (Journal of the American Chemical Society, 2023).

Consider `CC1(C)CCC(C)(C)c2cc(C3(c4ccc(C(=O)O)cc4)OCCO3)ccc21` [SR11237, reference compound], for which the “PPARγ:RXR heterodimerization” value in [1] was “enhanced”.

As to `O=C(O)CSc1nc(Cl)cc(Nc2cccc(OCCc3ccccc3)c2)n1` [compound 2], the “canonical PPAR signaling (gene expression)” value in [2] is recorded as “no induction”. Further, the “number of protein coding genes with significantly altered expression” value in data set [2] (p-value <0.05, |log2(fold change)| > 1) was found to be 1750. Besides, in data set [3], the “cytotoxic effects (apoptosis, necrosis)” value is “no cytotoxic effects”. Besides, the “phosphorylation of FOXO3a at Ser253” value in data set [4] was “promoted phosphorylation”. Further, in data set [1], the “PPARγ:RXR heterodimerization” value is “decreased heterodimer formation” and the “dimer stabilization by pioglitazone” value is listed as “abrogated”. Moreover, the pioglitazone-induced adipogenesis result in data set [5] is “diminished”. For the same molecule, the “adipogenesis (ASC differentiation)” value in data set [5] (50 μM) is reported as “did not cause adipogenesis”. In data set [6] (alone), the “transcriptional activity via PPRE” value was “induced transcriptional activity”. For the same molecule, the “pioglitazone-mediated PPRE activation” value in [6] (with pioglitazone) is “enhanced pioglitazone-mediated PPRE activation”. In addition, the “binding of 2 to the PPARγ LBD” value in [7] was “dose-dependent manner”. Also, in [8], the CBP-1 recruitment result is given as “displaced”, the DRIP2 recruitment entry is on record as “displaced”, the NCOR recruitment entry is listed as “enhanced binding” and the NCoA6 recruitment result is reported as “weaker recruitment”. In data set [8], the PGC-1α recruitment result is reported as “weaker recruitment” and the SMRT recruitment result is listed as “enhanced binding”. Further, the “thermal stabilization of the PPARγ LBD” value in data set [9] is given as “additive thermal stabilization”. Further, the “transcriptional activity of FOXO (FHRE activity)” value in data set [10] is reported as “diminished”. The “agonism / antagonism on nuclear receptors” value in data set [11] is recorded as “neither revealed agonism nor antagonistic effects”.

Regarding `CCc1ccc(CCOc2ccc(CC3SC(=O)NC3=O)cc2)nc1` (centres unmarked) [pioglitazone, reference compound], the “FOXO signaling-related gene expression” value in [12] was “no effect”. Further, the “PPARγ:RXR heterodimerization” value in data set [1] is given as “enhanced”.
